Like-named read-outs stand apart in the source and are kept apart here.
Key:
[1] = biological target: T1, WIZ protein (HiBit-WIZ fusion protein) (Homo sapiens, UniProt O95785+Q96SW2); assay: Quantification of WIZ protein levels in HiBit tag fusion protein assay (WIZ HiBit assay in 293T cells); format: cell-based; set-up: remaining activity / Dmax: dose or concentration left out as unconfirmed; details: for Dmax at 25 µM / remaining activity at 25 µM / Dmax / remaining activity: HEK-293T; for Dmax at 25 µM: 100 − Amax; for Dmax at 25 µM / remaining activity at 25 µM: 293T cells; for Dmax at 25 µM / Dmax: read-out: % degradation of WIZ (100 − Amax); for remaining activity at 25 µM: DMSO-normalized, curve-fitted percentage of WIZ-HiBit remaining at 25 uM; for remaining activity at 25 µM / remaining activity: read-out: WIZ Amax; for DC50: WIZ HiBit assay in 293T cells, 10-point, 5-fold dose response, highest concentration 25 μM, about 18 hours, read-out: WIZ AC50
T1 construct: expressed in transfected cells
T1 sequence (O95785 whole entry, the tested form may be a part): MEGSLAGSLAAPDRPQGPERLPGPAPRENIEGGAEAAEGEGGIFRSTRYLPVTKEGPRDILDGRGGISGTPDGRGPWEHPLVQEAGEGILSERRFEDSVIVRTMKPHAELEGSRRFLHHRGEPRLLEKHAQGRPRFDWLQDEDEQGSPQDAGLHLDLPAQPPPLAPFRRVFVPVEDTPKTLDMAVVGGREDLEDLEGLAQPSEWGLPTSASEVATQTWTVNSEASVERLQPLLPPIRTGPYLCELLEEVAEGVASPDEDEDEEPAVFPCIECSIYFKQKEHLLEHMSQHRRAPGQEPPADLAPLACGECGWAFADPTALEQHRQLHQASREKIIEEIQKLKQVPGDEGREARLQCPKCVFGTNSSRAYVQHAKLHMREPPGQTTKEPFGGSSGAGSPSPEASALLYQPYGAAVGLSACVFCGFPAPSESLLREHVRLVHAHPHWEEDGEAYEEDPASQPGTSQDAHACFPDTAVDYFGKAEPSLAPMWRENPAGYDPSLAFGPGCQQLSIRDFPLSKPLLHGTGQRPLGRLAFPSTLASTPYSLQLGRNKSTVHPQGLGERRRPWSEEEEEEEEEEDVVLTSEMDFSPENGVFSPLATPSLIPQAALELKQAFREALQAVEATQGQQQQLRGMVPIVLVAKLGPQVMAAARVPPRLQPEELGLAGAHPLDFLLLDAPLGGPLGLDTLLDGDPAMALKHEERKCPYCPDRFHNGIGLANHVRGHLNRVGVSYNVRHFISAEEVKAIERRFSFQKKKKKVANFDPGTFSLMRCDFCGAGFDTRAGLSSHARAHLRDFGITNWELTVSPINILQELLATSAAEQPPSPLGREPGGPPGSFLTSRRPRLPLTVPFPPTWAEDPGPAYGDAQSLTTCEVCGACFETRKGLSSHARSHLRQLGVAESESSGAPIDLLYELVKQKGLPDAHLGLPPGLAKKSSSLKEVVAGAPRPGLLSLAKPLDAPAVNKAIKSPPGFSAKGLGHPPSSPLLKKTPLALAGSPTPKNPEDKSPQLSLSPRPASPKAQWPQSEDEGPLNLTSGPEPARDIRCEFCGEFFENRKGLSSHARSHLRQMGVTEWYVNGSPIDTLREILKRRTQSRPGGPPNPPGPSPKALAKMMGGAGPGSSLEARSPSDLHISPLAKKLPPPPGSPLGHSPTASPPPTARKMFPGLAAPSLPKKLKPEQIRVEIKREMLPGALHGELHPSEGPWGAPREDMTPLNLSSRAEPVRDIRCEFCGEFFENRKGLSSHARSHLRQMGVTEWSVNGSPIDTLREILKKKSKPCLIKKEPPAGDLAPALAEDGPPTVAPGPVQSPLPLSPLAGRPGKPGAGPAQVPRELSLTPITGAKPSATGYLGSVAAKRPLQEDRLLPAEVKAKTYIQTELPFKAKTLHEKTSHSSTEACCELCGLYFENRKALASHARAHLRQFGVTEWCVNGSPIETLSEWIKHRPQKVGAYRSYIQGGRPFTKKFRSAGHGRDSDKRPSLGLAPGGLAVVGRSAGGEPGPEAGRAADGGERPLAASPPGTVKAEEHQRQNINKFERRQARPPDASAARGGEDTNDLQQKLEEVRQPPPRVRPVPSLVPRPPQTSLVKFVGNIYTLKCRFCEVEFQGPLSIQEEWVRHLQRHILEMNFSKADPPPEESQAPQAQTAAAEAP
T1 sequence (Q96SW2 whole entry, the tested form may be a part): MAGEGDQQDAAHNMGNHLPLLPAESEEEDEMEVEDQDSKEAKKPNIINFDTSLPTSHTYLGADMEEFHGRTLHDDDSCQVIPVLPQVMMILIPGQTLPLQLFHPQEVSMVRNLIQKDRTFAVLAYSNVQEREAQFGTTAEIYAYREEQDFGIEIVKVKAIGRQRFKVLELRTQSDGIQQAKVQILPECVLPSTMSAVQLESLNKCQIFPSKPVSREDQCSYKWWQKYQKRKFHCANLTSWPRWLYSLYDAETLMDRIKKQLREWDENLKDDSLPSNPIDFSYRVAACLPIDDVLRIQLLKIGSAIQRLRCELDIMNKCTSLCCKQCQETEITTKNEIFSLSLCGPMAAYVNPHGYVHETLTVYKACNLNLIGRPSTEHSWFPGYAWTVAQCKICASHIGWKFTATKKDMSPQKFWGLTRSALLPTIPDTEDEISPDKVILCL
T1 sequence (Q16531 whole entry partner, the tested form may be a part): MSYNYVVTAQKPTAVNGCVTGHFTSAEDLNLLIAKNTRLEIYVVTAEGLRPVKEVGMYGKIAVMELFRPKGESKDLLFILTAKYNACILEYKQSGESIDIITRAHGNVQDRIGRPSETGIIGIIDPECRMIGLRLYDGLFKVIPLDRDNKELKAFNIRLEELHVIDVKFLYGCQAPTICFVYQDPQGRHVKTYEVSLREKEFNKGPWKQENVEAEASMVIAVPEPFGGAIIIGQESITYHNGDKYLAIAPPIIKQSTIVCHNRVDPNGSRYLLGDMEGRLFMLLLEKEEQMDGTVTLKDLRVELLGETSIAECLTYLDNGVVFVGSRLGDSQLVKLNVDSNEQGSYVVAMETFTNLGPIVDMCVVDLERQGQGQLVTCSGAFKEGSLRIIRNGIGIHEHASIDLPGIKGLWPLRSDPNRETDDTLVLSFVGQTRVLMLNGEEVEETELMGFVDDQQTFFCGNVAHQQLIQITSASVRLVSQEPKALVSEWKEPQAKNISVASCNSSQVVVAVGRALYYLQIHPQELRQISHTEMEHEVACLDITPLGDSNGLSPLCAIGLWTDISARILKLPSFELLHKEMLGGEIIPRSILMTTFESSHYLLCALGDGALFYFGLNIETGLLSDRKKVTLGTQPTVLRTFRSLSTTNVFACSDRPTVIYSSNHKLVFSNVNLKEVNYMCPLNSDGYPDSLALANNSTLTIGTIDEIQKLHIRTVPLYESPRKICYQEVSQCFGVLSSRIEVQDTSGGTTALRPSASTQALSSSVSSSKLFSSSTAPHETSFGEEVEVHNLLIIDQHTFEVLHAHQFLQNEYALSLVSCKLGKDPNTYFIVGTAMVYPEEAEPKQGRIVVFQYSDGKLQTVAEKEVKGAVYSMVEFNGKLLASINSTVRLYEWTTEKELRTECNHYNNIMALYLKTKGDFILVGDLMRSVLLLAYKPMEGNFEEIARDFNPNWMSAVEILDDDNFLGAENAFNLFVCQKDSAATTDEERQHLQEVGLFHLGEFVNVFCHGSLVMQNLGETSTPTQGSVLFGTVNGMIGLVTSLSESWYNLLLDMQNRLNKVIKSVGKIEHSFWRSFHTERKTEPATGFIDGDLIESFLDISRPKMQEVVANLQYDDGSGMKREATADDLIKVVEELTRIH
How it was run: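 Luminescence after LgBit complementation quantified remaining HiBit-WIZ in lysates of single-copy stable 293T lines. Cells dosed ~18 h at 37 °C with 10-point, 5-fold dilutions (highest 25 μM); DMSO set to 100%, fitted curve gave % remaining at 25 μM (Amax).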

Fetal Hemoglobin (HbF) = assay: Small molecule HbF induction assay (mPB CD34+ cells erythroid differentiated, flow cytometry); format: cell-based; details: Homo sapiens, 168 h; for Emax: 7 days with compound, baseline DMSO approximately 30-40%, read-out: HbF Amax (highest percentage of cells staining positive for HbF in the fitted dose-response curve); for EC50: erythroid differentiated in presence of compound for 7 days, flow cytometry
Protocol: Cryopreserved primary human CD34^+ hematopoietic stem and progenitor cells were obtained from AllCells, LLC. The CD34^+ cells were isolated from the peripheral blood of healthy donors after mobilization by administration of granulocyte colony-stimulating factor. Cells were differentiated ex vivo toward the erythroid lineage using a 2-phase culture method. In the first phase, cells were cultured in StemSpan™ Serum-Free Expansion Media (SFEM) ([…] Technologies Inc.) supplemented with rhSCF (50 ng/mL, Peprotech®, Inc.), rhIL-6 (50 ng/mL, Peprotech®, Inc.), rhIL-3 (50 ng/mL, Peprotech®, Inc.), and rhFlt3L (50 ng/mL, Peprotech®, Inc.), and 1× antibiotic-antimycotic (Life Technologies, Thermo Fisher Scientific) for 6 days at 37° C. with 5% CO2. During the second phase, cells were cultured in erythroid differentiation media at 5,000 cells/mL in the presence of compound for 7 days at 37° C. with 5% CO2. Erythroid Differentiation Media is comprised of IMDM (Life Technologies) supplemented with insulin (10 μg/mL, Sigma Aldrich), heparin (2 U/mL Sigma Aldrich), holo-transferrin (330 μg/mL, Sigma Aldrich), human serum AB (5%, Sigma Aldrich), hydrocortisone (1 μM, […] Technologies), rhSCF (100 ng/mL, Peprotech®, Inc.), rhIL-3 (5 ng/mL, Peprotech®, Inc.), rhEPO (3 U/mL, Peprotech®, Inc.), and 1× antibiotic-antimycotic. All compounds were dissolved and diluted into dimethylsulfoxide (DMSO) and were added to culture media for a final concentration of 0.3% DMSO for testing in a 7-point, 1:3 dilution series starting at 30 uM.
Staining and Flow Cytometry
For viability analysis, samples were washed and resuspended in phosphate-buffered saline (PBS) and stained with LIVE/DEAD™ Fixable Violet Dead Cell Stain Kit (Life Technologies, L34963) for 20 minutes. Cells were then washed again with PBS and resuspended in PBS supplemented with 2% fetal bovine serum (FBS), and 2 mM EDTA to prepare for cell surface marker analysis. Cells were labeled with allophycocyanin-conjugated CD235a (1:100, BD Biosciences, 551336) and Brilliant Violet-conjugated CD71 (1:100, BD Biosciences, 563767) antibodies for 20 minutes. For analysis of cytoplasmic Fetal Hemoglobin (HbF), cells were fixed and permeabilized using the Fixation (BioLegend®, 420801) and Permeabilization Wash (BioLegend®, 421002) Buffers according to the manufacturer's protocol. During the permeabilization step, cells were stained with phycoerythrin-conjugated or FITC-conjugated HbF-specific antibody (1:10-1:25, Invitrogen™, MHFH04-4) for 30 minutes. Stained cells were washed with phosphate-buffered saline before analysis on the FACSCanto™ II flow cytometer or LSRFortessa™ (BD Biosciences). Data analysis was performed with FIowJo™ Software (BD Biosciences).
HbF Induction Activity of Compounds (Table 2)
mPB CD34+ cells were expanded for 6 days, then erythroid differentiated in the presence of compound for 7 days. Cells were fixed, stained and analyzed by flow cytometry. […] HbF Amax=the highest percentage of cells staining positive for HbF (% HbF+ cells) in the fitted dose-response curve. The baseline % HbF+ cells for DMSO-treated cells is approximately 30-40%.

HbF [2] = details: ex vivo, human primary erythroid cells; cited from earlier work
HbF [3] = details: in vivo; cited from earlier work

Dmax at 25 µM [1] [%] | remaining activity at 25 µM [1] [%] | DC50 [1] [nM] | EC50 (Fetal Hemoglobin (HbF)) [nM] | SMILES | Emax (Fetal Hemoglobin (HbF)) [%] | Dmax [1] [%] | remaining activity [1] [%] | HbF induction (HbF [2]) | HbF induction (HbF [3])
82 | 18 | 49 | 74 | CO[C@H]1CC[C@H](CN2CCN(Cc3ccn4ncc(N5CCC(=O)NC5=O)c4c3)CC2)CC1 [Example 179, 1-(5-((4-(((1r,4r)-4-methoxycyclohexyl)methyl)piperazin-1-yl)methyl)pyrazolo[1,5-a]pyridin-3-yl)dihydropyrimidine-2,4(1H,3H)-dione] | 79 |  |  |  | 
 |  |  |  | Nc1cccc2c1CN(C1CCC(=O)NC1=O)C2=O (stereo not drawn) [lenalidomide] |  |  |  | induce HbF | induce HbF
84 | 16 | 25 | 30 | CC(C)CN1CC[C@@H](Cc2ccn3ncc(N4CCC(=O)NC4=O)c3c2)C[C@@H]1C [Example 145] | 76 |  |  |  | 
91 | 9 | 2 | 6 | C[C@H]1C[C@H](Cc2ccn3ncc(N4CCC(=O)NC4=O)c3c2)CCN1CC1CCC(F)(F)CC1 [Example 141, 1-(5-(((2S,4R)-1-((4,4-difluorocyclohexyl)methyl)-2-methylpiperidin-4-yl)methyl)pyrazolo[1,5-a]pyridin-3-yl)dihydropyrimidine-2,4(1H,3H)-dione] | 90 |  |  |  | 
89 | 11 | 11 | 38 | C[C@H]1C[C@H](Cc2ccn3ncc(N4CCC(=O)NC4=O)c3c2)CCN1CC1CCOCC1 [Example 142] | 89 |  |  |  | 
82 | 18 | 39 | 129 | CC(C)CN1CCC(Cc2ccn3ncc(N4CCC(=O)NC4=O)c3c2)CC1 [Example 109, 1-(5-((1-isobutylpiperidin-4-yl)methyl)pyrazolo[1,5-a]pyridin-3-yl)dihydropyrimidine-2,4(1H,3H)-dione] | 77 |  |  |  | 
 |  |  |  | Nc1cccc2c1C(=O)N(C1CCC(=O)NC1=O)C2=O (stereo not drawn) [pomalidomide] |  |  |  | induce HbF | induce HbF
82 | 18 | 48 | 266 | O=C1CCN(c2cnn3ccc(CC4CCN(Cc5cccnc5)CC4)cc23)C(=O)N1 [Example 17, 1-(5-((1-(pyridin-3-ylmethyl)piperidin-4-yl)methyl)pyrazolo[1,5-a]pyridin-3-yl)dihydropyrimidine-2,4(1H,3H)-dione] | 80 |  |  |  | 
84 | 16 | 25 | 45 | CC(C)CN1CCN(Cc2ccn3ncc(N4CCC(=O)NC4=O)c3c2)C[C@@H]1C [Example 203, (S)-1-(5-((4-isobutyl-3-methylpiperazin-1-yl)methyl)pyrazolo[1,5-a]pyridin-3-yl)dihydropyrimidine-2,4(1H,3H)-dione] | 82 |  |  |  | 
86 | 14 | 16 | 64 | CO[C@H]1CC[C@H](CN2CCN(Cc3ccn4ncc(N5CCC(=O)NC5=O)c4c3)C[C@@H]2C)CC1 [Example 210, 1-(5-(((S)-4-(((1r,4S)-4-methoxycyclohexyl)methyl)-3-methylpiperazin-1-yl)methyl)pyrazolo[1,5-a]pyridin-3-yl)dihydropyrimidine-2,4(1H,3H)-dione] | 86 |  |  |  | 
82 | 18 | 45 | 999 | O=C1CCN(c2cnn3ccc(CN4CCN(CC5CCOCC5)CC4)cc23)C(=O)N1 [Example 160] | 84 |  |  |  | 
86 | 14 | 14 | 89 | C[C@H]1CN(Cc2ccn3ncc(N4CCC(=O)NC4=O)c3c2)CCN1CC1CCC(F)(F)CC1 [Example 207] | 85 |  |  |  | 
83 | 17 | 15 |  | C[C@H]1C[C@H](Cc2ccn3ncc(N4CCC(=O)NC4=O)c3c2)CCN1S(=O)(=O)N1CCCC1 [Example 291, 1-(5-(((2S,4R)-2-methyl-1-(pyrrolidin-1-ylsulfonyl)piperidin-4-yl)methyl)pyrazolo[1,5-a]pyridin-3-yl)dihydropyrimidine-2,4(1H,3H)-dione] |  |  |  |  | 

SMILES | Dmax at 25 µM [1] [%] | remaining activity at 25 µM [1] [%] | DC50 [1] [nM] | EC50 (Fetal Hemoglobin (HbF)) [nM] | Emax (Fetal Hemoglobin (HbF)) [%] | Dmax [1] [%] | remaining activity [1] [%] | HbF induction (HbF [2]) | HbF induction (HbF [3])
C[C@H]1C[C@H](Cc2ccn3ncc(N4CCC(=O)NC4=O)c3c2)CCN1C(=O)C1CC1 [Example 287, 1-(5-(((2S,4R)-1-(cyclopropanecarbonyl)-2-methylpiperidin-4-yl)methyl)pyrazolo[1,5-a]pyridin-3-yl)dihydropyrimidine-2,4(1H,3H)-dione] |  |  | 15 | 60 | 63 | 81 | 19 |  | 
O=C1CCN(c2cnn3ccc(CN4CCN(CC5CCCCC5)CC4)cc23)C(=O)N1 [Example 156, 1-(5-((4-(cyclohexylmethyl)piperazin-1-yl)methyl)pyrazolo[1,5-a]pyridin-3-yl)dihydropyrimidine-2,4(1H,3H)-dione] |  |  | 23 | 12 | 81 | 86 | 14 |  | 
CCS(=O)(=O)N1CC[C@@H](Cc2ccn3ncc(N4CCC(=O)NC4=O)c3c2)C[C@@H]1C [Example 283, 1-(5-(((2S,4R)-1-(ethylsulfonyl)-2-methylpiperidin-4-yl)methyl)pyrazolo[1,5-a]pyridin-3-yl)dihydropyrimidine-2,4(1H,3H)-dione] |  |  | 29 | 127 | 61 | 80 | 19 |  | 

Source: US11787785B2 (NOVARTIS AG, priority 2021, dated 2023)
